{
  "source": "patent US20100331233A1",
  "about": "“CRYSTAL OF XPA AND ERCC1 COMPLEX AND USES THEREOF” (priority 2007, published 2010)",
  "key": {"ERCC192-214": {"molecular_target": "T1, ERCC192-214 (Homo sapiens, UniProt P07992)", "T1 construct": "an ERCC1 central domain fragment consisting of amino acids 92-214 preceded by an N-terminal hexahistidine tag; made in house; host or cells: E. coli BL21(DE3), M9 minimal media with 15N-labeled NH4Cl", "T1 sequence (P07992 92-214)": "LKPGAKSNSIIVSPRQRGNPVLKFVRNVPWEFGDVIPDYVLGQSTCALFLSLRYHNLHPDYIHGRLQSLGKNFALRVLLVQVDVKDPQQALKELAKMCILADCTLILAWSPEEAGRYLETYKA", "assay": "15N HSQC NMR chemical shift perturbation of 15N-labeled ERCC1", "format": "binding", "details": "15N HSQC spectrum of ERCC1-XPA complex; read-out: dissociation equilibrium constant implied by slow-exchange regime", "protocol": "FIG. 3 illustrates the binding of XPA67-80 in a shallow groove of ERCC1. (A) A comparison of the two dimensional HSQC spectra for ^15N-labeled ERCC192-214 in the presence and absence of an unlabeled XPA67-80 peptide. The ^15N HSQC spectra reveal significant chemical shift changes for some ERCC1 residues (labeled) in the absence or presence of unlabeled XPA67-80. (B) Combined average chemical shift perturbations are calculated as Δχave=[((Δχ1H)^2+(Δχ15N/5)^2)/2)]^1/2 for each backbone amide of ERCC1 and shown as a histogram.\nNMR experiments and determination of the structure of XPA-ERCC1 complex. All NMR data were acquired in the NMR Buffer described above. […] Backbone assignments of the free ERCC192-214 and ERCC1-XPA67-80 complex were performed using a standard set of triple-resonance experiments: HNCA/HN(CO)CA, HN(CA)CB/HN(COCA)CB and HNCO/HN(CA)CO.\nIdentification of the ERCC1 binding site in complex with XPA. The binding site for XPA on the surface of ERCC1 (FIG. 2B) was identified using two dimensional HSQC experiments. […] The ^15N HSQC spectrum of the ERCC1-XPA complex is consistent with a slow-exchange regime, implying a dissociation equilibrium constant below 1 μM for the complex. The XPA binding site on the ERCC1 central domain was identified using the backbone assignments for […] alone and in complex with XPA (see below). […]"}, "ERCC1-XPF": {"molecular_target": "T2, ERCC1-XPF (Homo sapiens, UniProt P07992)", "T2 sequence (P07992 1-297)": "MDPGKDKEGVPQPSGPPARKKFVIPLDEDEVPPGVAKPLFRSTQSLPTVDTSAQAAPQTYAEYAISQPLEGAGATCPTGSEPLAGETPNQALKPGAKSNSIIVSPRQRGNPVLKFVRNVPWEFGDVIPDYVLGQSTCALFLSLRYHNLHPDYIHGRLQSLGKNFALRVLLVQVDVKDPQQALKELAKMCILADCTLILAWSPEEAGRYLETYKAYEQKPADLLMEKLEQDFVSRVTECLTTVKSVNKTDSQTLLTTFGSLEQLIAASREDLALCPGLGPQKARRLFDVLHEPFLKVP", "T2 sequence (Q92889 1-916 partner)": "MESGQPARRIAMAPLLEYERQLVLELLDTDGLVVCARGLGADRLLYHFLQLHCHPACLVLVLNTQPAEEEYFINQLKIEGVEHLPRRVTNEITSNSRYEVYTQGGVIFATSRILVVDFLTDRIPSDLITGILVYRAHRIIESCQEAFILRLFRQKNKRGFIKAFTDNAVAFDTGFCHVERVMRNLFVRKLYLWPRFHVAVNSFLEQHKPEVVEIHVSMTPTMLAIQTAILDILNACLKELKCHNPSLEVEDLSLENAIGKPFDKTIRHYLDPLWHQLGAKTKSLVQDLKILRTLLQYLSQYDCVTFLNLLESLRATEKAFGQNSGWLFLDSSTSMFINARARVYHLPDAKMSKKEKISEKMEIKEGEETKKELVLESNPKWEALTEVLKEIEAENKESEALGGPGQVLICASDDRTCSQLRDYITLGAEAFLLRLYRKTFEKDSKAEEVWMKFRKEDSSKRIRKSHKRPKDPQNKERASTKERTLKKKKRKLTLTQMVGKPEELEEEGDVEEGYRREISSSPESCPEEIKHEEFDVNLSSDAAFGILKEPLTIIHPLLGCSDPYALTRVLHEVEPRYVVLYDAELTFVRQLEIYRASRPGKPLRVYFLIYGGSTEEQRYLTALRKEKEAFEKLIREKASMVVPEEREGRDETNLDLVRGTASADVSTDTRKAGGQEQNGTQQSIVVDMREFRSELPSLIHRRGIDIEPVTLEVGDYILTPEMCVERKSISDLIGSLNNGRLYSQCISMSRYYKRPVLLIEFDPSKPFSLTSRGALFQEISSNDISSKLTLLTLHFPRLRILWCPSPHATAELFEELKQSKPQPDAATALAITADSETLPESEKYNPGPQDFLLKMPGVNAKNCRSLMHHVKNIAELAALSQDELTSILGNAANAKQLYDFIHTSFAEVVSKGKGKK", "assay": "Nuclease assay: incision of stem-loop DNA substrate by purified ERCC1-XPF", "format": "biochemical", "details": "92 μM peptide", "protocol": "Nuclease assay. A substrate consisting of a 12 base pair stem with a 22 nucleotide loop (5′-[…](T)22[…]; SEQ ID NO:7) was 5′ end labeled using a T4 polynucleotide kinase and [γ-^32P]-ATP. […] The final reaction volume was 15 μl."}},
  "note": "No end group written: not given here.",
  "data": [
    {"sequence": "KIIDTGGGFILEEE [XPA67-80]", "values": [
      {"measurement": "Kd", "setting": "ERCC192-214", "value": "< 1000", "unit": "nM"},
      {"measurement": "effect on intrinsic nuclease activity of ERCC1-XPF", "setting": "ERCC1-XPF; 0.4 mM MnCl2", "value": "do not affect"},
      {"measurement": "effect on intrinsic nuclease activity of ERCC1-XPF", "setting": "ERCC1-XPF; 0.4 mM MnCl2, listed as XPA peptide", "value": "has no effect"}
    ]}
  ]
}
